Measurements as given in publication PMC10250618, “Synthesis, structure-activity relationships and biological evaluation of benzimidazole derived sulfonylurea analogues as a new class of antagonists of P2Y1 receptor” (Frontiers in Pharmacology, 2023).
Where two headings read alike, the source gives them in different places.

Legend:
MTT assay, HeLa = type: cell-based; settings: human, HeLa cells; at 50 µM; triplicate; read-out: HeLa Cell Line (%cytotoxicity ±SEM)
MTT assay, HEK-293 = type: cell-based; settings: human, HEK-293 cells; at 50 µM; triplicate; read-out: HEK-293 Cell Line (%cytotoxicity ±SEM)
h-P2Y2 = target: T1, h-P2Y2 (Homo sapiens, UniProt P41231); test: Calcium mobilization assay, h-P2Y2 transfected 1321N1 astrocytoma cells; type: cell-based; settings: for inhibition at 100 µM: 1321-N1, final conc of 100 μM
T1 construct: host or cells: human 1321N1 astrocytoma cells, stably transfected
Description: (§1) Dr. Gary A. Weisman provided human-1321N1 astrocytoma cells that had been transfected by the tP2Y1R, hP2Y2R, hP2Y4R, and rP2Y6R and untransfected 1321N1 astrocytoma cells (University of Missouri Mo., Bond Life Science Center). The DMEM Dulbecco’s Modified Eagle -Medium (Gibco) was added in flasks to cultivate the cell line. 10% of the Fetal bovine serum was also added to the media together with 500 μg/mL of Geneticin (G418) and 1% of the Pen/Strep. The cells in T-75 flask were then cultured and incubated in a CO2 incubator which was maintained at (5%) and 37°C temperature until 90% of the cells were confluent. Throughout the experiment, cells were periodically checked for the confluency and strictly watched for the microbial contamination.
(§2) The FLUOstar Galaxy (BMG LABTECH GmbH, Ortenberg, Germany) microplate reader with two injectors was used to measure the Ca^2+ fluorescence of synthetic compounds. For this assay, 1321N1 transfected cells (t-P2Y1, h-P2Y2, h-P2Y4, and r-P2Y6) were cultured in T-75 flask. When cells reached the confluency of 80%–90%, they were washed with PBS and then Trypsin was added. After trypsinization for 3 min, 20,000 cells/well were allowed to seed in a black wall and 96 well clear bottom plate which was coated with Poly-D-Lysine and allowed to incubate for 24 h in 37°C, 5% CO2 incubator. After incubation, 200 μL culture media was changed with 100 μL HBSS containing Fura-2 AM which is calcium chelating dye and allowed the plate to incubate for 45 min in dark at temp of 37°C in incubator which is maintained with carbon dioxide (5% CO2). After incubation for 45 min, synthesized molecules were added to HBSS washed cells in each well of 96 well plate and re-incubated for 30 min at 37°C. In next step, injection of the endogenous ligand such as ADP through the injector was followed by excitation and emission measurements of Fura-2 AM at 380/520 nm and 340/520. Final volume of the assay per well 200 μL. IC50 values were computed for the compounds displaying more than 50% of activity using Prism 5.0 software (Graph Pad., Inc., San Diego. California, United States) by using analysis i.e., nonlinear regression ([Kassack et al., 2002]; [Ullmann et al., 2005]).

t-P2Y1 = target: T2, t-P2Y1 (Meleagris gallopavo, UniProt P49652); test: Calcium mobilization assay, t-P2Y1 transfected 1321N1 astrocytoma cells; type: cell-based; settings: for inhibition at 100 µM: 1321-N1, final conc of 100 μM
T2 construct: host or cells: human 1321N1 astrocytoma cells, stably transfected
Description: as §1, §2

h-P2Y4 = target: T3, h-P2Y4 (Homo sapiens, UniProt P51582); test: Calcium mobilization assay, h-P2Y4 transfected 1321N1 astrocytoma cells; type: cell-based
T3 construct: host or cells: human 1321N1 astrocytoma cells, stably transfected
Description: as §1, §2

r-P2Y6 = target: T4, r-P2Y6 (Rattus norvegicus, UniProt Q63371); test: Calcium mobilization assay, r-P2Y6 transfected 1321N1 astrocytoma cells; type: cell-based; settings: for inhibition at 100 µM: 1321-N1, final conc of 100 μM
T4 construct: host or cells: human 1321N1 astrocytoma cells, stably transfected
Description: as §1, §2

[1] = MTT assay, non-transfected 1321N1 astrocytoma cells; type: cell-based, human; settings: human, non-transfected 1321N1 astrocytoma cells; at 50 µM; non-transfected astrocytoma 1321N1 cells; triplicate; read-out: H-1321N1 Cell Line (%cytotoxicity ±SEM)
Description: A 96-well plate was used to plate 20,000 human 1321N1 astrocytoma cells and allowed for incubation for 24 h at temp of 37°C in CO2 (5%) incubator. Next to this, the prepared culture media was changed to media which was free from FBS, the test compounds were added and the incubation process was repeated. After incubation of 24 h, the serum free media from the wells was discarded, and 100 μL of the reagent i.e., MTT reagent was pipetted. Plate was then additionally incubated at 37°C for 4 h. Utilizing a microplate reader, absorbance was determined at 570 nm and 630 nm for calculation of cell viability (FLUOstarOmega Microplate Reader-BMG LABTECH GmbH, Ortenberg, Germany) ([Sauer et al., 2009]).

[2] = Ca2+ mobilization inhibition, transfected 1321N1 cells, 100 μM ADP, read-out: IC50 ± SEM t-P2Y1
[3] = 1321-N1, final conc of 100 μM, 500 μM UTP, read-out: % Inhibition h-P2Y4
[4] = Ca2+ mobilization inhibition, transfected 1321N1 cells, 100 μM of UDP, read-out: IC50 ± SEM r-P2Y6
[5] = Ca2+ mobilization inhibition, transfected 1321N1 cells, 500 μM ATP, read-out: IC50 ± SEM h-P2Y2
[6] = Ca2+ mobilization inhibition, transfected 1321N1 cells, 500 μM UTP, read-out: IC50 ± SEM h-P2Y4

T1 sequence (P41231 whole entry): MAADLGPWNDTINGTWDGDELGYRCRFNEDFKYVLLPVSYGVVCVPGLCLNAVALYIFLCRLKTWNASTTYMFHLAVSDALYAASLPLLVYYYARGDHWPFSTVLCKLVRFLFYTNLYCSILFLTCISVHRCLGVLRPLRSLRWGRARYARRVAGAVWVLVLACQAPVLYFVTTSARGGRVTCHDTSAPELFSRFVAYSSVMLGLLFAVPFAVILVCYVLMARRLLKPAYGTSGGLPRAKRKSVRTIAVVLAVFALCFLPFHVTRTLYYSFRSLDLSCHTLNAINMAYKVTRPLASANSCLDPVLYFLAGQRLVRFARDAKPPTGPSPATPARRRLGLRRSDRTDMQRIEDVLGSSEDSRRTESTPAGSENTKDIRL
T4 sequence (Q63371 whole entry): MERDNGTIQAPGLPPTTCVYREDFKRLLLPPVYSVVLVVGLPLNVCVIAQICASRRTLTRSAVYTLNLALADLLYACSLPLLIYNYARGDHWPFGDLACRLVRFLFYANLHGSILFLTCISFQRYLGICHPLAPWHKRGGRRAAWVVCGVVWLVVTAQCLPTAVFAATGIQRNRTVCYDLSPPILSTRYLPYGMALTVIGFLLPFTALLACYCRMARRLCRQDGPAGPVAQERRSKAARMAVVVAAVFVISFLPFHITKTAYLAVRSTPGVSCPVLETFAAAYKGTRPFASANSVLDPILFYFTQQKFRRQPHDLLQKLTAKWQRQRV
T2 sequence (P49652 whole entry): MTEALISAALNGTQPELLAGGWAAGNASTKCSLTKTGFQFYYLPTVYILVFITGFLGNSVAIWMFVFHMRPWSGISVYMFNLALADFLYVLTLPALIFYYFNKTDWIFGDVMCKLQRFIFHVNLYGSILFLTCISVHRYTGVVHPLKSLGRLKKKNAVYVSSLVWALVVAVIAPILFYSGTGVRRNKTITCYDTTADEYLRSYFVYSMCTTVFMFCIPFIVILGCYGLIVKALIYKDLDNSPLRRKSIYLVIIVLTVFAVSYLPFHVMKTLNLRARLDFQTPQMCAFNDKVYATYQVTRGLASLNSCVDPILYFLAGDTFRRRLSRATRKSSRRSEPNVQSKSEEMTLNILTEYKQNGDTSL
T3 sequence (P51582 whole entry): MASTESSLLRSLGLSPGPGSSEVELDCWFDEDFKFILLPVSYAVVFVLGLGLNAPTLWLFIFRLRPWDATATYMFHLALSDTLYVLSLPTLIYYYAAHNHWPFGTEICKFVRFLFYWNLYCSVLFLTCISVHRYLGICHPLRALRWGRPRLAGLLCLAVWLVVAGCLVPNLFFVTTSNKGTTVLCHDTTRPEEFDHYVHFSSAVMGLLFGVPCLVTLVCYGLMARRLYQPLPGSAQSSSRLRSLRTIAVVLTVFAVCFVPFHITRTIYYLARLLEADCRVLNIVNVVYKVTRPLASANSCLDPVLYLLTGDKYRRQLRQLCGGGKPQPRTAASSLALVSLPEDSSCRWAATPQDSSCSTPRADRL

inhibition at 100 µM (h-P2Y2; 500 μM ATP) [%] | IC50 (t-P2Y1; [2]) [µM] | inhibition at 100 µM (h-P2Y4; [3]) [%] | IC50 (r-P2Y6; [4]) [µM] | melting point [°C] | IC50 (h-P2Y2; [5]) [µM] | IC50 (h-P2Y4; [6]) [µM] | Structure (SMILES) | cytotoxicity at 24 h, 50 µM (MTT assay, HeLa) [%] | cytotoxicity at 24 h, 50 µM (MTT assay, HEK-293) [%] | cytotoxicity at 24 h, 50 µM [1] [%] | inhibition at 100 µM (t-P2Y1; 100 μM ADP) [%] | inhibition at 100 µM (r-P2Y6; 100 μM of UDP) [%] | IC50 (h-P2Y2) [µM] | IC50 (t-P2Y1) [µM] | inhibition at 100 µM (h-P2Y4; 1321-N1, read-out: % Inhibition h-P2Y4) [%] | IC50 (r-P2Y6) [µM] | decreased potency relatively to the derivative 1h (t-P2Y1; P2Y1) | IC50 (h-P2Y4) [µM]
44 | 0.37 ± 0.02 | 41 | 0.66 ± 0.04 | 107 to 110 |  |  | Nc1nc2cc([N+](=O)[O-])ccc2n1C(=O)NS(=O)(=O)c1cc(Cl)cc(Cl)c1O [1a, 2-Amino-N-((3,5-dichloro-2-hydroxyphenyl)sulfonyl)-5-nitro-1H-benzo [d]imidazole-1-carboxamide] | 22.2 ± 1.1 | 13.3 ± 0.1 | 27.4 ± 0.5 |  |  |  |  |  |  |  | 
 | 0.46 ± 0.01 |  | 0.75 ± 0.08 | 115 to 117 | 5.5 ± 1.21 | 0.6 ± 0.01 | Nc1nc2ccccc2n1C(=O)NS(=O)(=O)c1cc(Cl)cc(Cl)c1O [1e, 2-Amino-N-((3,5-dichloro-2-hydroxyphenyl)sulfonyl)-1H-benzo [d]imidazole-1-carboxamide] | 21.3 ± 0.6 | 16.3 ± 0.2 | 39.9 ± 0.2 |  |  |  |  |  |  |  | 
33 | 11.2 ± 0.71 | 13 |  | 183 to 184 |  |  | Cc1ccc([N+](=O)[O-])cc1S(=O)(=O)NC(=O)n1c(N)nc2ccccc21 [1g, 2-Amino-N-((2-methyl-5-nitrophenyl)sulfonyl)-1H-benzo [d]imidazole-1-carboxamide] | 11.6 ± 1.1 | 14.3 ± 0.3 | 46.2 ± 0.2 |  | 40 |  |  |  |  |  | 
 | 1.21 ± 0.07 | 34 |  | 129 to 131 | 15.7 ± 1.48 |  | Nc1nc2cc(Cl)ccc2n1C(=O)NS(=O)(=O)c1ccc(Cl)cc1 [1i, 2-Amino-5-chloro-N-((4-chlorophenyl)sulfonyl)-1H-benzo [d]midazole-1-carboxamide] | 39.3 ± 0.4 | 36.2 ± 0.1 | 38.7 ± 0.8 |  | 41 |  |  |  |  |  | 
32 | 13.4 ± 0.22 | 42 | 25.4 ± 3.1 | 144 to 146 |  |  | Cc1ccc([N+](=O)[O-])cc1S(=O)(=O)NC(=O)n1c(N)nc2cc(Cl)ccc21 [1j, 2-Amino-5-chloro-N-((2-methyl-5-nitrophenyl)sulfonyl)-1H-benzo [d]imidazole-1-carboxamide] | 26.1 ± 0.7 | 38.2 ± 0.4 | 44.3 ± 0.6 |  |  |  |  |  |  |  | 
 | 12.4 ± 1.03 |  | 8.49 ± 1.23 | 183 to 184 | 11.1 ± 0.94 | 16.6 ± 1.12 | Nc1nc2cc(Cl)ccc2n1C(=O)NS(=O)(=O)c1ccc([N+](=O)[O-])cc1 [1k, 2-Amino-5-chloro-N-((4-nitrophenyl)sulfonyl)-1H-benzo [d]imidazole-1-carboxamide] | 21.7 ± 0.9 | 27.2 ± 0.2 | 41.7 ± 0.2 |  |  |  |  |  |  |  | 
21 | 5.69 ± 0.23 | 19 | 7.06 ± 1.47 | 158 to 160 |  |  | O=C(NS(=O)(=O)c1ccc(Cl)cc1)n1c(-c2ccccc2)nc2ccccc21 [1n, N-((4-chlorophenyl)sulfonyl)-2-phenyl-1H-benzo [d]imidazole-1-carboxamide] | 22.4 ± 0.8 | 38.7 ± 0.3 | 26.5 ± 0.4 |  |  |  |  |  |  |  | 
12 | 5.59 ± 0.91 | 20 | 16.3 ± 0.83 | 160 to 162 |  |  | COc1ccc(S(=O)(=O)NC(=O)n2c(Cl)nc3ccccc32)cc1 [1p, 2-Chloro-N-((4-methoxyphenyl)sulfonyl)-1H-benzo [d]imidazole-1-carboxamide] | 20.5 ± 0.2 | 24.2 ± 0.7 | 21.2 ± 0.3 |  |  |  |  |  |  |  | 

Structure (SMILES) | inhibition at 100 µM (h-P2Y2; 500 μM ATP) [%] | IC50 (t-P2Y1; [2]) [µM] | inhibition at 100 µM (h-P2Y4; [3]) [%] | IC50 (r-P2Y6; [4]) [µM] | melting point [°C] | IC50 (h-P2Y2; [5]) [µM] | IC50 (h-P2Y4; [6]) [µM] | cytotoxicity at 24 h, 50 µM (MTT assay, HeLa) [%] | cytotoxicity at 24 h, 50 µM (MTT assay, HEK-293) [%] | cytotoxicity at 24 h, 50 µM [1] [%] | inhibition at 100 µM (t-P2Y1; 100 μM ADP) [%] | inhibition at 100 µM (r-P2Y6; 100 μM of UDP) [%] | IC50 (h-P2Y2) [µM] | IC50 (t-P2Y1) [µM] | inhibition at 100 µM (h-P2Y4; 1321-N1, read-out: % Inhibition h-P2Y4) [%] | IC50 (r-P2Y6) [µM] | decreased potency relatively to the derivative 1h (t-P2Y1; P2Y1) | IC50 (h-P2Y4) [µM]
Cc1ccc(S(=O)(=O)NC(=O)n2c(N)nc3cc([N+](=O)[O-])ccc32)cc1 [1b, 2-Amino-5-nitro-N-tosyl-1H-benzo [d]imidazole-1-carboxamide] | 38 |  | 18 |  | 113 to 115 |  |  | 21.6 ± 0.2 | 21.3 ± 0.2 | 17.3 ± 0.8 | 33 | 21 |  |  |  |  |  | 
Cc1ccc([N+](=O)[O-])cc1S(=O)(=O)NC(=O)n1c(N)nc2cc([N+](=O)[O-])ccc21 [1c, 2-Amino-N-((2-methyl-5-nitrophenyl)sulfonyl)-5-nitro-1H-benzo [d]imidazole-1-carboxamide] |  |  |  |  | 117 to 119 |  |  | 26.4 ± 0.7 | 19.5 ± 0.4 | 21.1 ± 0.6 |  |  | 6.32 ± 1.1 | 11.11 ± 0.04 | 42 | 16.1 ± 0.59 |  | 
Nc1nc2ccccc2n1C(=O)NS(=O)(=O)c1ccc(Cl)cc1 [1f, 2-Amino-N-((4-chlorophenyl)sulfonyl)-1H-benzo [d]imidazole-1-carboxamide] |  | 0.94 ± 0.01 | 47 | 9.3 ± 1.12 | 110 to 112 | 8.41 ± 0.07 |  | 16.4 ± 0.2 | 21.2 ± 0.7 | 23.6 ± 0.8 |  |  |  |  |  |  | about five | 
O=C(NS(=O)(=O)c1ccc(-c2ccccc2)cc1)n1c(-c2ccccc2)nc2ccccc21 [1l, N-([1.1′-biphenyl]-4-ylsulfonyl)-2-phenyl-1H-benzo [d]imidazole-1-carboxamide] | 34 |  | 22 |  | 133 to 135 |  |  | 28.3 ± 1.2 | 21.3 ± 0.6 | 47.2 ± 0.4 | 27 | 43 |  |  |  |  |  | 
O=C(NS(=O)(=O)c1ccccc1)n1c(-c2ccccc2)nc2ccccc21 [1m, 2-Phenyl-N-(phenylsulfonyl)-1H-benzo [d]imidazole-1-carboxamide] | 37 |  | 16 |  | 154 to 156 |  |  | 39.4 ± 1.3 | 33.3 ± 0.3 | 37.9 ± 0.7 | 29 | 21 |  |  |  |  |  | 
O=C(NS(=O)(=O)c1ccc([N+](=O)[O-])cc1)n1c(-c2ccccc2)nc2ccccc21 [1o, N-((4-nitrophenyl)sulfonyl)-2-phenyl-1H-benzo [d]imidazole-1-carboxamide] |  |  | 46 |  | 162 to 164 | 18.2 ± 0.77 |  | 24.3 ± 0.4 | 27.9 ± 0.8 | 24.3 ± 0.8 | 46 | 32 |  |  |  |  |  | 
Nc1c(S(=O)(=O)O)cc(Nc2ccc(Nc3nc(Cl)nc(Nc4cccc(S(=O)(=O)O)c4)n3)c(S(=O)(=O)O)c2)c2c1C(=O)c1ccccc1C2=O [Reactive Blue 2, reference compound] |  |  |  | 2.8 ± 0.11 |  |  |  |  |  |  |  |  | 0.57 ± 0.02 |  |  |  |  | 8.4 ± 1.2
